Assay results taken from paper PMC10447463, “Data-mining unveils structure–property–activity correlation of viral infectivity enhancing self-assembling peptides” (Nature Communications, 2023).
Like-named read-outs stand apart in the source and are kept apart here.

How the values were obtained:
[1] = Zeta-potential measurement; format: physicochemical
In short: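 Aggregates: 1 mg/mL peptide, PBS pH 7.4, 1 d RT; dilute in KCl (1 mM, aq); measure mobility → zeta via Smoluchowski.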

[2] = Turbidity, derived count rate of scattered light; format: physicochemical; details: for Count Rate / kcps: derived count rate of scattered light at 633 nm, 173°, from zeta-potential measurement, 0.1 mg/mL in 1 mM KCl after 1 d at 1 mg/mL in PBS, turbidity / microscopic aggregation, mean of triplicate; for Zeta Count Rate: peptides with TEM 2cat 0
In short: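 Samples: 1 mg/mL in PBS pH 7.4 (from DMSO), 1 d at RT, then diluted in 1 mM KCl immediately before measurement. Triplicates, two independent runs averaged.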

[3] = β-sheet content by ATR-FT-IR; format: physicochemical; details: for b -sheet / %: Fig. S7 panel A, β-sheet content by ATR-FT-IR; for beta sheet: peptides with TEM 2cat 0
In short: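 First, PNF was ultrafiltered (3 kDa MWCO, 16200 x g, 45 min, 4 °C). Next, filtrate and unfiltered sample were lyophilized and taken up in DMSO. Then fluorescamine was added for 20 min at RT before reading ex 365/em 470 nm. β-sheet: ATR FT-IR of lyophilized 1 mg/mL PNF.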

[4] = system: HIV-1 infection of TZM-bl cells; experiment: HIV-1 infectivity enhancement assay, β-galactosidase luminescence; format: cell-based; details: for Rel-EFC: infection relative to EF-C (QCKIKQIINMWQ = 1); for Log10 Infection Rel EFC: log10 of infection relative to EF-C; for Log Infectivity: Fig. S7 panel A (plotted against β-sheet content), Log10 infection relative to EF-C, asymmetric std dev errors; for Log Infectivity / Abs. Inf.: TZM-bl cells; for Log10 Infection Rel EF-C: HIV-1 infection of TZM-bl cells; for Log10 of Rel to EFC (Feb2021): Log10 of infection relative to EF-C; for Abs. Inf.: absolute HIV-1 infection signal, β-galactosidase luminescence
[5] = zeta potential of peptide assemblies
[6] = zeta-potential of peptide, source data of Figure 2C
[7] = zeta-potential of the peptide assemblies, mean, Figure 3A source data
[8] = Log10 of derived count rate of scattered light (turbidity)
[9] = log10 of derived count rate of scattered light (turbidity)
[10] = turbidity, Log10 of derived count rate of scattered light, Figure 3A source data
[11] = Log10 of infection rate relative to EF-C, Figure 3A source data
[12] = infection rate relative to EF-C, log10, data of Figure 2D
[13] = infection rate relative to EF-C, log10, source data of Figure 2C
[14] = second listing, peptides with TEM 2cat 0

| Substance | Zeta-Pot. [1, 5] | Zeta-Potential / mV [1, 6] [mV] | Zeta-Potential / mV [1, 7] [mV] | Log10 Count Rate [2, 8] | Count Rate / kcps [2] [kcps] | Log10 Count Rate [2, 9] | Log10 Count Rate [2, 10] | b -sheet / % [3] [%] | Rel-EFC ([4]; 1.3 µM peptide) | Log10 Infection Rel EFC ([4]; 1.3 µM peptide) | Log Infectivity [4] | Log10 Infection Rel EF-C [4, 11] | Log10 Infection Rel EF-C [4, 12] | Log10 Infection Rel EF-C [4, 13] | Zeta Count Rate [2] [kcp] | Log10 of Rel to EFC (Feb2021) ([4]; all peptides of FigS16) | Log10 of Rel to EFC (Feb2021) [4, 14] | Zeta-Pot. [1] | Abs. Inf. [4] | also measured |
| --- | --- | --- | --- | --- | --- | --- | --- | --- | --- | --- | --- | --- | --- | --- | --- | --- | --- | --- | --- | --- |
| KIKIKIKI | 5.46 | 5.997 | 5.46 | 2.191 | 155 | 2.191 | 2.191 | 40.46 | 0,03 | -1,49 | -1.487 | -1.49 | -1.487 | -1.487 |  |  |  |  |  |  |
| KIKIKIKIWWWW | 15.2 | 14.82 | 15.2 | 4.094 | 12421 | 4.094 | 4.094 | 37.79 | 0,59 | -0,23 | -0.2301 | -0.23 | -0.2301 | -0.2301 | 12421 | -0.23 | -0.23 |  |  |  |
| KIKIKIQINMWQ |  | 13 | 13.1 | 3.205 | 1603 | 3.205 | 3.205 | 39.61 | 0,79 | -0,1 | -0.1048 | -0.1 | -0.1048 | -0.1048 |  | -0.1 |  | 13.1 | 20353.33333 |  |
| KIKIQII | 5.61 | 6.302 | 5.61 | 3.017 | 1039 | 3.017 | 3.017 | 44.64 | 0,02 | -1,73 | -1.729 | -1.73 | -1.729 | -1.729 |  |  |  |  |  |  |
| KIKIQIMQWN |  | 8.94 | 9.44 | 3.343 | 2203 | 3.343 | 3.343 | 40.38 | 0,72 | -0,15 | -0.1454 | -0.15 | -0.1454 | -0.1454 |  | -0.15 |  | 9.44 | 11623.33333 |  |
| KIKIQIMWNQ |  | 4.42 | 2.96 | 3.2757 | 1887 | 3.2757 | 3.2757 | 41.4 | 0,56 | -0,25 | -0.2495 | -0.25 | -0.2495 | -0.2495 |  | -0.25 |  | 2.96 | 9147 |  |
| KIKIQINMWQRGD |  | -0.495 | 1.69 | 3.445 | 2783 | 3.445 | 3.445 | 47.72 | 0,01 | -1,92 | -1.917 | -1.92 | -1.917 | -1.917 |  |  |  | 1.69 | 196.7 | Zeta pot. / mV ([1]; 1 mg/mL in PBS pH 7.4 from 10 mg/mL DMSO stock, 1 d RT, 60 µL diluted in 600 µL 1 mM KCl, Zetasizer Nano ZS, Smoluchowski, mean of triplicate): 1.7 mV; Log10 Count Rate ([2]; logarithm of count rate in kcps): 3.4; ß-sheet / % ([3]; ATR-FT-IR of lyophilised 1 mg/mL PNF solution, peak integral ratio 1625-1635 cm-1, measured once): 48%; Inf. rel. EF-C ([4]; HIV-1 infection relative to EF-C, Fig 23 plot, panels A and B, mean of 3 values): 0.008366; Inf. rel. EF-C ([4]; HIV-1 infection relative to EF-C, Fig 23 plot, single data point, replicate 1): 0.00461; Inf. rel. EF-C ([4]; HIV-1 infection relative to EF-C, Fig 23 plot, single data point, replicate 2): 0.009457; Inf. rel. EF-C ([4]; HIV-1 infection relative to EF-C, Fig 23 plot, single data point, replicate 3): 0.01103; Abs. Inf. / RLU s-1 ([4]; absolute infection rate, peptide 1.3 µM on cells, virus preincubated 10 min with fibrils, read 3 days post infection, mean of triplicate): 197 RLU s-1; Inf. rel. EF-C ([4]; n-fold infection vs virus only, relative to that of EF-C, 1.3 µM peptide): 0.01 |
| KIKIQINMWWQ |  | 13.17 | 11.8 | 3.59 | 3893 | 3.59 | 3.59 | 50.48 | 3,21 | 0,51 | 0.5063 | 0.51 | 0.5063 | 0.5063 | 3893 | 0.51 | 0.51 | 11.8 | 17976.66667 | beta sheet [3]: 50 |
| KIKIQINMWWWQ |  | 9.633 | 9.45 | 3.8806 | 7596 | 3.8806 | 3.8806 | 47.92 | 2,75 | 0,44 | 0.4391 | 0.44 | 0.4391 | 0.4391 | 7596 | 0.44 | 0.44 | 9.45 | 15400 | beta sheet [3]: 48 |
